Data: patent publication US5747535A, “Selective thrombin inhibitors” (priority 1995, dated 1998)
Read-outs that look alike come from different tables or passages of the source.

Tests used:
[1] = Test 2: Pharmacokinetic test in dogs; assay type: in vivo, dog; conditions: for concentration at 2 min / concentration at 5 min / concentration at 10 min / concentration at 20 min / concentration at 0.5 h / concentration at 0.75 h / concentration at 1 h / concentration at 1.5 h / concentration at 2 h / concentration at 4 h / concentration at 5 h / concentration at 6 h / concentration at 3 h: 10 mg/kg; for concentration at 0.5 h: 30 min; for concentration at 0.75 h: 45 min; for concentration at 1 h: 60 min; for concentration at 1.5 h: 90 min; for concentration at 2 h: 120 min; for concentration at 4 h: 240 min; for concentration at 5 h: 300 min; for concentration at 6 h: 360 min; for concentration at 3 h: 180 min; for bioavailability: oral route
Method: Male rats and dogs were fasted for 24 hours and used as the experimental animals. […] Bloods were collected from the animals at given time intervals and then immediately mixed with methanol and zinc sulfate. Finally, the upper layer of the mixture was quantitatively analyzed at ultraviolet wavelength of 231 nm to measure the drug concentration in blood by HPLC.

trypsin = molecular target: T1, trypsin (Bos taurus, UniProt P00760); assay: biochemical; assay type: biochemical; conditions: 20 μM substrate; read-out: Inhibitory activity for trypsin, Ki
T1 sequence (P00760 24-246): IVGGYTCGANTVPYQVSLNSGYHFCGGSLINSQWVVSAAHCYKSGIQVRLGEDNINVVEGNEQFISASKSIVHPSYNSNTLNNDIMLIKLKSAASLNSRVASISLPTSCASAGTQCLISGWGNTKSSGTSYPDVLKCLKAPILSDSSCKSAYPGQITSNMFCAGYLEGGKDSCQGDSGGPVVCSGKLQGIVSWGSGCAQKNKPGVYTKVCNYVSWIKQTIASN
Method: To identify the selectivity for thrombin over trypsin of the compound of the present invention, the inhibitory activity for trypsin of the compound of formula (I) is measured as Ki value according to the same method as the above method for determination of thrombin inhibitory activity, and then the ratio of the activity for trypsin to the activity for thrombin is calculated. In this case, the procedure for determination of inhibitory activity for trypsin is substantially identical to that for thrombin, except that N-benzoyl-Val-Gly-Arg para-nitroanilide hydrochloride is used as the substrate.
As the substrate 20μM solution of N-benzoyl-Val-Gly-Arg-p-nitroanilide hydrochloride was used, and the inhibitor was used in various concnetrations within the range of […]. In addition, trypsin was dissolved in 0.1N HCl, adjusted to the concentration of 45 μg/ml with the said tris buffered solution just before the experiment, and then used in an amount of 40μl. As in the experiment for thrombin, a total volume of the reaction solution was 1.5 ml and the remaining procedure was conducted in the same manner.

[2] = dog, blood, iv, Dog-1, i.v. 10 mg/kg, read-out: Blood concentration
[3] = dog, blood, iv, Dog-2, i.v. 10 mg/kg, read-out: Blood concentration
[4] = dog, blood, iv, dogs, i.v. 10 mg/kg, read-out: Blood concentration, Average(+error)
[5] = dog, blood, po, Dog-1, oral 10 mg/kg, read-out: Blood concentration
[6] = dog, blood, po, Dog-2, oral 10 mg/kg, read-out: Blood concentration
[7] = dog, blood, po, dogs, oral 10 mg/kg, read-out: Blood concentration, Average(+error)

concentration at 2 min [1, 2]: 29100 ng/mL
concentration at 5 min [1, 2]: 9080 ng/mL
concentration at 10 min [1, 2]: 5940 ng/mL
concentration at 20 min [1, 2]: 3610 ng/mL
concentration at 0.5 h [1, 2]: 2430 ng/mL
concentration at 0.75 h [1, 2]: 1940 ng/mL
concentration at 1 h [1, 2]: 1470 ng/mL
concentration at 1.5 h [1, 2]: 1270 ng/mL
concentration at 2 h [1, 2]: 1090 ng/mL
concentration at 4 h [1, 2]: 544 ng/mL
concentration at 5 h [1, 2]: 315 ng/mL
concentration at 6 h [1, 2]: 317 ng/mL
concentration at 2 min [1, 3]: 36600 ng/mL
concentration at 5 min [1, 3]: 5230 ng/mL
concentration at 10 min [1, 3]: 3280 ng/mL
concentration at 20 min [1, 3]: 1800 ng/mL
concentration at 0.5 h [1, 3]: 1340 ng/mL
concentration at 0.75 h [1, 3]: 859 ng/mL
concentration at 1 h [1, 3]: 690 ng/mL
concentration at 1.5 h [1, 3]: 501 ng/mL
concentration at 2 h [1, 3]: 377 ng/mL
concentration at 4 h [1, 3]: 129 ng/mL
concentration at 5 h [1, 3]: 107 ng/mL
concentration at 6 h [1, 3]: 92 ng/mL
concentration at 2 min [1, 4]: 32900 ng/mL
concentration at 5 min [1, 4]: 7160 ng/mL
concentration at 10 min [1, 4]: 4610 ng/mL
concentration at 20 min [1, 4]: 2710 ng/mL
concentration at 0.5 h [1, 4]: 1880 ng/mL
concentration at 0.75 h [1, 4]: 1400 ng/mL
concentration at 1 h [1, 4]: 1080 ng/mL
concentration at 1.5 h [1, 4]: 885 ng/mL
concentration at 2 h [1, 4]: 733 ng/mL
concentration at 4 h [1, 4]: 337 ng/mL
concentration at 5 h [1, 4]: 211 ng/mL
concentration at 6 h [1, 4]: 204 ng/mL
concentration at 10 min [1, 5]: 1390 ng/mL
concentration at 20 min [1, 5]: 2080 ng/mL
concentration at 0.5 h [1, 5]: 1940 ng/mL
concentration at 0.75 h [1, 5]: 1890 ng/mL
concentration at 1 h [1, 5]: 2220 ng/mL
concentration at 1.5 h [1, 5]: 1270 ng/mL
concentration at 2 h [1, 5]: 774 ng/mL
concentration at 3 h [1, 5]: 663 ng/mL
concentration at 4 h [1, 5]: 812 ng/mL
concentration at 5 h [1, 5]: 51 ng/mL
concentration at 6 h [1, 5]: 118 ng/mL
concentration at 10 min [1, 6]: 15 ng/mL
concentration at 20 min [1, 6]: 17 ng/mL
concentration at 0.5 h [1, 6]: 105 ng/mL
concentration at 0.75 h [1, 6]: 558 ng/mL
concentration at 1 h [1, 6]: 1310 ng/mL
concentration at 1.5 h [1, 6]: 935 ng/mL
concentration at 2 h [1, 6]: 730 ng/mL
concentration at 3 h [1, 6]: 616 ng/mL
concentration at 4 h [1, 6]: 318 ng/mL
concentration at 5 h [1, 6]: 222 ng/mL
concentration at 6 h [1, 6]: 153 ng/mL
concentration at 10 min [1, 7]: 702 ng/mL
concentration at 20 min [1, 7]: 1050 ng/mL
concentration at 0.5 h [1, 7]: 1020 ng/mL
concentration at 0.75 h [1, 7]: 1220 ng/mL
concentration at 1 h [1, 7]: 1760 ng/mL
concentration at 1.5 h [1, 7]: 1100 ng/mL
concentration at 2 h [1, 7]: 752 ng/mL
concentration at 3 h [1, 7]: 640 ng/mL
concentration at 4 h [1, 7]: 565 ng/mL
concentration at 5 h [1, 7]: 136 ng/mL
concentration at 6 h [1, 7]: 135 ng/mL
bioavailability ([1]; dog, blood, dogs, read-out: Bioavailability): 61%
half-life ([1]; dog, blood, dogs, read-out: Elimination Half-life, Average + (error)): 1.63 h
elimination half-life in dogs compared with rats ([1]; dogs vs rats, intravenous): twice longer or more than that in rats
bioavailability ([1]; dogs): 61 (15) %
Ki (trypsin): 3.19 µM
SMILES: CN(C(=O)[C@H](Cc1ccc(C(=N)NN)cc1)NS(=O)(=O)c1ccc2ccccc2c1)C1CCCC1 [Example 1, (S)-N-cyclopentyl-N-methyl-3-(4-amidrazonophenyl)-2-(2-naphthylsulfonylamino)propionamide]
elimination half-life in dogs compared with argatroban in human being ([1]; dogs vs argatroban (40 minutes) in human being): twice longer or more than that of commercially available argatroban
distribution and disappearance after intravenous injection ([1]; dogs, intravenous): rapidly distributed and then slowly disappeared
pharmacokinetic characteristics compared with argatroban ([1]; oral absorption and elimination half-life): better pharmacokinetic characteristics than argatroban
